Assay results as given in PubChem BioAssay (NCI).
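At the GI50, growth is halved. TGI marks complete inhibition of growth.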

Columns and labels:
Assay in all cases: growth of human tumour cells (NCI), 384-well format; in the data active means GI50 below about 0.43 µM; inactive means the rest
OVCAR-8 ovarian = system: OVCAR-8 ovarian
MALME-3M melanoma = system: MALME-3M melanoma
M14 melanoma = system: M14 melanoma
OVCAR-4 ovarian = system: OVCAR-4 ovarian
EKVX NSCLC = system: EKVX NSCLC
A549 NSCLC = system: A549 NSCLC
A498 renal = system: A498 renal
SK-MEL-5 melanoma = system: SK-MEL-5 melanoma
SW-620 colon = system: SW-620 colon
SR leukemia = system: SR leukemia
MOLT-4 leukemia = system: MOLT-4 leukemia
OVCAR-3 ovarian = system: OVCAR-3 ovarian
TK-10 renal = system: TK-10 renal
NCI-H460 NSCLC = system: NCI-H460 NSCLC
MDA-MB-468 breast = system: MDA-MB-468 breast
PC-3 prostate = system: PC-3 prostate
SNB-19 CNS = system: SNB-19 CNS
T-47D breast = system: T-47D breast
HCC-2998 colon = system: HCC-2998 colon
LOX IMVI melanoma = system: LOX IMVI melanoma
MDA-MB-435 melanoma = system: MDA-MB-435 melanoma
DU-145 prostate = system: DU-145 prostate
RXF 393 renal = system: RXF 393 renal
MCF7 breast = system: MCF7 breast
HS 578T breast = system: HS 578T breast
HCT-15 colon = system: HCT-15 colon
OVCAR-5 ovarian = system: OVCAR-5 ovarian
MDA-MB-231 breast = system: MDA-MB-231 breast
KM12 colon = system: KM12 colon
CAKI-1 renal = system: CAKI-1 renal
RPMI-8226 leukemia = system: RPMI-8226 leukemia
SNB-75 CNS = system: SNB-75 CNS
SF-268 CNS = system: SF-268 CNS
SN12C renal = system: SN12C renal
786-0 renal = system: 786-0 renal
UO-31 renal = system: UO-31 renal
COLO 205 colon = system: COLO 205 colon
SK-MEL-28 melanoma = system: SK-MEL-28 melanoma
NCI-H322M lung = system: NCI-H322M lung
HT29 colon = system: HT29 colon
K-562 leukemia = system: K-562 leukemia
CCRF-CEM leukemia = system: CCRF-CEM leukemia
U251 glioblastoma = system: U251 glioblastoma
SF-539 CNS = system: SF-539 CNS
SF-295 CNS = system: SF-295 CNS
IGROV1 ovarian = system: IGROV1 ovarian
NCI/ADR-RES ovarian = system: NCI/ADR-RES ovarian
HOP-92 NSCLC = system: HOP-92 NSCLC
HL-60(TB) leukemia = system: HL-60(TB) leukemia

CCc1c(C#N)c(S[C@@H](C(N)=O)c2ccccc2)nc(N(C)C)c1C#N
76.8 µM: TGI (SNB-75 CNS)
inactive: GI50 (OVCAR-8 ovarian) 3.77 µM | GI50 (MALME-3M melanoma) 38.1 µM | GI50 (M14 melanoma) > 100 µM | GI50 (OVCAR-4 ovarian) > 100 µM | GI50 (EKVX NSCLC) > 100 µM | GI50 (A549 NSCLC) > 100 µM | GI50 (A498 renal) > 100 µM | GI50 (SK-MEL-5 melanoma) > 100 µM | GI50 (SW-620 colon) > 100 µM | GI50 (SR leukemia) 3.05 µM | GI50 (MOLT-4 leukemia) > 100 µM | GI50 (OVCAR-3 ovarian) > 100 µM | GI50 (TK-10 renal) > 100 µM | GI50 (NCI-H460 NSCLC) > 100 µM | GI50 (MDA-MB-468 breast) > 100 µM | GI50 (PC-3 prostate) > 100 µM | GI50 (SNB-19 CNS) > 100 µM | GI50 (T-47D breast) > 100 µM | GI50 (HCC-2998 colon) > 100 µM | GI50 (LOX IMVI melanoma) > 100 µM | GI50 (MDA-MB-435 melanoma) > 100 µM | GI50 (DU-145 prostate) > 100 µM | GI50 (RXF 393 renal) 2.31 µM | GI50 (MCF7 breast) > 100 µM | GI50 (HS 578T breast) 4.58 µM | GI50 (HCT-15 colon) > 100 µM | GI50 (OVCAR-5 ovarian) > 100 µM | GI50 (MDA-MB-231 breast) 37.7 µM | GI50 (KM12 colon) > 100 µM | GI50 (CAKI-1 renal) > 100 µM | GI50 (RPMI-8226 leukemia) > 100 µM | GI50 (SNB-75 CNS) 26.4 µM | GI50 (SF-268 CNS) > 100 µM | GI50 (SN12C renal) > 100 µM | GI50 ([…]-0 renal) > 100 µM | GI50 (UO-31 renal) > 100 µM | GI50 (COLO 205 colon) > 100 µM | GI50 (SK-MEL-28 melanoma) > 100 µM | GI50 (NCI-H322M lung) > 100 µM | GI50 (HT29 colon) > 100 µM | GI50 (K-562 leukemia) > 100 µM | GI50 (CCRF-CEM leukemia) > 100 µM | GI50 (U251 glioblastoma) > 100 µM | GI50 (SF-539 CNS) > 100 µM | GI50 (SF-295 CNS) 3.83 µM | GI50 (IGROV1 ovarian) > 100 µM | GI50 (NCI/ADR-RES ovarian) > 100 µM | GI50 (HOP-92 NSCLC) 10.6 µM | GI50 (HL-60(TB) leukemia) > 100 µM
> 100 µM: TGI (OVCAR-8 ovarian) | TGI (MALME-3M melanoma) | TGI (M14 melanoma) | TGI (OVCAR-4 ovarian) | TGI (EKVX NSCLC) | TGI (A549 NSCLC) | TGI (A498 renal) | TGI (SK-MEL-5 melanoma) | TGI (SW-620 colon) | TGI (SR leukemia) | TGI (MOLT-4 leukemia) | TGI (OVCAR-3 ovarian) | TGI (TK-10 renal) | TGI (NCI-H460 NSCLC) | TGI (MDA-MB-468 breast) | TGI (PC-3 prostate) | TGI (SNB-19 CNS) | TGI (T-47D breast) | TGI (HCC-2998 colon) | TGI (LOX IMVI melanoma) | TGI (MDA-MB-435 melanoma) | TGI (DU-145 prostate) | TGI (MCF7 breast) | TGI (HS 578T breast) | TGI (HCT-15 colon) | TGI (OVCAR-5 ovarian) | TGI (MDA-MB-231 breast) | TGI (KM12 colon) | TGI (CAKI-1 renal) | TGI (RPMI-8226 leukemia) | TGI (SF-268 CNS) | TGI (SN12C renal) | TGI (786-0 renal) | TGI (UO-31 renal) | TGI (COLO 205 colon) | TGI (SK-MEL-28 melanoma) | TGI (NCI-H322M lung) | TGI (HT29 colon) | TGI (K-562 leukemia) | TGI (CCRF-CEM leukemia) | TGI (U251 glioblastoma) | TGI (SF-539 CNS) | TGI (SF-295 CNS) | TGI (IGROV1 ovarian) | TGI (NCI/ADR-RES ovarian) | TGI (HOP-92 NSCLC) | TGI (HL-60(TB) leukemia)
6.06 µM: TGI (RXF 393 renal)
